In brackets after ≈: the same amount, converted by molar mass.

Assay [1] has as its system FM3A. The assay can be described thus: Antiproliferative activity against mouse FM3A cells after 48 hrs by Coulter counting analysis. In kind it is functional, cell-based.
For assay [2], the system named is CCRF-CEM. Briefly: Antiproliferative activity against human CEM cells after 72 hrs by Coulter counting analysis. In kind it is functional, cell-based.
Assay [3] concerns HeLa. Briefly: Antiproliferative activity against human HeLa cells after 96 hrs by Coulter counting analysis. In kind it is functional, cell-based.
In assay [4] the test system is L1210. The assay can be described thus: Antiproliferative activity against mouse L1210 cells after 48 hrs by Coulter counting analysis. In kind it is functional, cell-based. To be noted: L1210, 48 h.
Assay [5] deals with Bone morphogenetic protein receptor type-1B (Homo sapiens) (UniProt O00238). Briefly: Inhibition of BMPR1b assessed as activity remaining at 10 uM by competitive binding inhibition assay.
Bone morphogenetic protein receptor type-1B (Homo sapiens), sequence (O00238 whole entry): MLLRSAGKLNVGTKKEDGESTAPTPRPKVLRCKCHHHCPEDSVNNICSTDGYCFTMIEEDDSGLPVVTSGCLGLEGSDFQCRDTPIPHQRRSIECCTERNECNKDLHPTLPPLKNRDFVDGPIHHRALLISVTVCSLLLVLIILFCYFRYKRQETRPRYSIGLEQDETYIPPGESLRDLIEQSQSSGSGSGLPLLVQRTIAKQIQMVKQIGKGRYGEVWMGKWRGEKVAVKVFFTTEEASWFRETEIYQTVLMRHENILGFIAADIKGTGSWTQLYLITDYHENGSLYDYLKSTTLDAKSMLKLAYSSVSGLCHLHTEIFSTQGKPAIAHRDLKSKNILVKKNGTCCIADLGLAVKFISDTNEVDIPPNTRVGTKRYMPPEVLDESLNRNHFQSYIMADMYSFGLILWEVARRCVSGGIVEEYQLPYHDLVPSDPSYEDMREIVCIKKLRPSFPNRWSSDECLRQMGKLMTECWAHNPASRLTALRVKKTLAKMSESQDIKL

`CCCCCCCCCC(=O)O[C@@H]1[C@H](OC(=O)CCCCCCCCC)[C@@H](CNC(=O)NC)O[C@H]1n1cnc2c(NC(=O)Nc3ccccc3)ncnc21`: the IC50 (usually the concentration that inhibits the measured activity by half) is 140 mg/L (≈ 186 µM) in assay [1], above 100 mg/L in assay [2], above 100 mg/L in assay [3] and above 100 mg/L in assay [4].

`CNC(=O)NC[C@H]1O[C@@H](n2cnc3c(NC(=O)Nc4ccccc4)ncnc32)[C@H](OC(=O)C(C)(C)C)[C@@H]1OC(=O)C(C)(C)C`: the IC50 in assay [1] was determined as 15 mg/L (≈ 24.6 µM); in assay [2], 20 mg/L (≈ 32.8 µM); in assay [3] it was 17 mg/L (≈ 27.8 µM); in assay [4], 9.7 mg/L (≈ 15.9 µM).

Take `CC[Si](CC)(CC)O[C@@H]1[C@H](O[Si](CC)(CC)CC)[C@@H](CNC(=O)NC)O[C@H]1n1cnc2c(NC(=O)Nc3ccccc3)ncnc21`: the IC50 in assay [1] is 3 mg/L (≈ 4.47 µM); in assay [2], 4.2 mg/L (≈ 6.26 µM); in assay [3], 3.7 mg/L (≈ 5.51 µM); in assay [4], 3.8 mg/L (≈ 5.66 µM). In addition, the Activity in assay [5] turned out to be 100%.

`CNC(=O)NC[C@H]1O[C@@H](n2cnc3c(N)ncnc32)[C@H](OC(C)=O)[C@@H]1OC(C)=O`: the IC50 in assay [1] was above 200 mg/L; in assay [2] it was above 200 mg/L; in assay [3] it was above 200 mg/L; in assay [4] it was 112 mg/L (≈ 275 µM).

Regarding `CNC(=O)NC[C@H]1O[C@@H](n2cnc3c(NC(=O)Nc4ccccc4)ncnc32)[C@H](OC(=O)c2ccccc2)[C@@H]1OC(=O)c1ccccc1`, the IC50 in assay [1] is 61 mg/L (≈ 93.8 µM); in assay [2], above 200 mg/L; in assay [3], above 200 mg/L; in assay [4], 154 mg/L (≈ 237 µM). Also, in assay [5], the Activity is 100%.

With `CNC(=O)NC[C@H]1O[C@@H](n2cnc3c(N)ncnc32)[C@H](OC(=O)C(C)C)[C@@H]1OC(=O)C(C)C`, the IC50 was found to be 107 mg/L (≈ 231 µM) in assay [1], 88 mg/L (≈ 190 µM) in assay [2], 99 mg/L (≈ 214 µM) in assay [3] and 87 mg/L (≈ 188 µM) in assay [4].

On to `CCCCCC(=O)O[C@@H]1[C@H](OC(=O)CCCCC)[C@@H](CNC(=O)NC)O[C@H]1n1cnc2c(NC(=O)Nc3ccccc3)ncnc21`, for which the IC50 was 20 mg/L (≈ 31.3 µM) in assay [1], 10 mg/L (≈ 15.7 µM) in assay [2], 15 mg/L (≈ 23.5 µM) in assay [3] and 9.5 mg/L (≈ 14.9 µM) in assay [4].

With `CNC(=O)NC[C@H]1O[C@@H](n2cnc3c(NC(=O)Nc4ccccc4)ncnc32)[C@H](OC(=O)C(C)C)[C@@H]1OC(=O)C(C)C`, the IC50 in assay [1] was determined as 44 mg/L (≈ 75.5 µM); in assay [2], 28 mg/L (≈ 48.1 µM); in assay [3], 73 mg/L (≈ 125 µM); in assay [4], 29 mg/L (≈ 49.8 µM). Besides, in assay [5], the Activity was 100%.

Turning to `CCCCCCCC(=O)O[C@@H]1[C@H](OC(=O)CCCCCCC)[C@@H](CNC(=O)NC)O[C@H]1n1cnc2c(NC(=O)Nc3ccccc3)ncnc21`, the IC50 in assay [1] amounted to 32 mg/L (≈ 46.1 µM); in assay [2], 12 mg/L (≈ 17.3 µM); in assay [3] it was 16 mg/L (≈ 23 µM); in assay [4], 11 mg/L (≈ 15.8 µM).

For the molecule `CNC(=O)NC[C@H]1O[C@@H](n2cnc3c(NC(=O)Nc4ccccc4)ncnc32)[C@H](O[Si](c2ccccc2)(c2ccccc2)C(C)(C)C)[C@@H]1O[Si](c1ccccc1)(c1ccccc1)C(C)(C)C`, the IC50 in assay [1] was above 200 mg/L; in assay [2], at least 200 mg/L; in assay [3], 104 mg/L (≈ 113 µM); in assay [4], above 200 mg/L. The Activity in assay [5] was 100%.

For `CNC(=O)NC[C@H]1O[C@@H](n2cnc3c(NC(=O)Nc4ccccc4)ncnc32)[C@H](O[Si](C(C)C)(C(C)C)C(C)C)[C@@H]1O[Si](C(C)C)(C(C)C)C(C)C`, the IC50 in assay [1] was above 200 mg/L; in assay [2], 142 mg/L (≈ 188 µM); in assay [3], at least 200 mg/L; in assay [4], above 200 mg/L. In assay [5], the Activity was 100%.

With `CCCC(=O)O[C@@H]1[C@H](OC(=O)CCC)[C@@H](CNC(=O)NC)O[C@H]1n1cnc2c(NC(=O)Nc3ccccc3)ncnc21`, the IC50 is 18 mg/L (≈ 30.9 µM) in assay [1], 29 mg/L (≈ 49.8 µM) in assay [2], 58 mg/L (≈ 99.6 µM) in assay [3] and 20 mg/L (≈ 34.3 µM) in assay [4].

For the molecule `CNC(=O)NC[C@H]1O[C@@H](n2cnc3c(N)ncnc32)[C@H](OC(=O)c2ccccc2)[C@@H]1OC(=O)c1ccccc1`, the IC50 in assay [1] came out at 36 mg/L (≈ 67.7 µM); in assay [2], 19 mg/L (≈ 35.7 µM); in assay [3], 40 mg/L (≈ 75.3 µM); in assay [4], 16 mg/L (≈ 30.1 µM).

For `CCCCCCCCCCCCCCCC(=O)O[C@@H]1[C@H](OC(=O)CCCCCCCCCCCCCCC)[C@@H](CNC(=O)NC)O[C@H]1n1cnc2c(NC(=O)Nc3ccccc3)ncnc21`, the IC50 in assay [1] is above 200 mg/L; in assay [2], above 100 mg/L; in assay [3], above 100 mg/L; in assay [4], above 100 mg/L.

`CNC(=O)NC[C@H]1O[C@@H](n2cnc3c(NC(=O)Nc4ccccc4)ncnc32)[C@H](OC(C)=O)[C@@H]1OC(C)=O`: the IC50 in assay [1] is 150 mg/L (≈ 285 µM); in assay [2] it was 107 mg/L (≈ 203 µM); in assay [3] it was above 200 mg/L; in assay [4], 97 mg/L (≈ 184 µM). In assay [5], the Activity is 95%.

For the origin of these results see ChEMBL document CHEMBL2086355, “Synthesis and SAR of 2',3'-bis-O-substituted N(6), 5'-bis-ureidoadenosine derivatives: implications for prodrug delivery and mechanism of action” (Bioorg Med Chem Lett, 2012).
